# Data published in US9108921B2, “Therapeutic compounds and compositions” (AGIOS PHARMACEUTICALS, INC, priority 2014, dated 2015).
# Columns and labels:
# PKR R510Q = PKR R510Q (Homo sapiens, UniProt P30613, R510Q); experiment: PKR Mutant Assay, AC50 against PKR R510Q; assay type: biochemical; settings: mutant PKR R510Q enzyme
# Procedure, shortened: (§1)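 LDH-coupled read-out: NADH (180 uM) consumption followed as absorbance change at 340 nm, room temperature, after ADP addition. Mutant PKR enzyme 80-400 ng/well, PEP 0.1-0.5 mM, ADP 0.22-1.65 mM; compound preincubated 60 min with all components except ADP.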
# PKR R532W = PKR R532W (Homo sapiens, UniProt P30613, R532W); experiment: PKR Mutant Assay, AC50 against PKR R532W; assay type: biochemical; settings: mutant PKR R532W enzyme
# Procedure, shortened: as §1
# PKR WT [1] = biological target: T1, PKR WT (Homo sapiens, UniProt P30613); experiment: PKR WT enzymatic AC50 assay; assay type: biochemical; settings: wild type PKR
# Procedure, shortened: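 LDH-coupled NADH depletion read as A340 change at room temperature after ADP (0.22-1.65 mM) start. Compounds, tested from 100 μM final in 3-fold steps over 11 points with 1% DMSO, sat 60 min with enzyme (80-400 ng/well), PEP 0.1-0.5 mM and NADH 180 uM in Tris pH 7.5/KCl/MgCl2/DTT/BSA buffer.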
# PKR WT [2] = biological target: T1, PKR WT; experiment: PKR WT cell based AC50 assay; settings: wild type PKR
# PKR R532W, sequence (P30613 whole entry R532W): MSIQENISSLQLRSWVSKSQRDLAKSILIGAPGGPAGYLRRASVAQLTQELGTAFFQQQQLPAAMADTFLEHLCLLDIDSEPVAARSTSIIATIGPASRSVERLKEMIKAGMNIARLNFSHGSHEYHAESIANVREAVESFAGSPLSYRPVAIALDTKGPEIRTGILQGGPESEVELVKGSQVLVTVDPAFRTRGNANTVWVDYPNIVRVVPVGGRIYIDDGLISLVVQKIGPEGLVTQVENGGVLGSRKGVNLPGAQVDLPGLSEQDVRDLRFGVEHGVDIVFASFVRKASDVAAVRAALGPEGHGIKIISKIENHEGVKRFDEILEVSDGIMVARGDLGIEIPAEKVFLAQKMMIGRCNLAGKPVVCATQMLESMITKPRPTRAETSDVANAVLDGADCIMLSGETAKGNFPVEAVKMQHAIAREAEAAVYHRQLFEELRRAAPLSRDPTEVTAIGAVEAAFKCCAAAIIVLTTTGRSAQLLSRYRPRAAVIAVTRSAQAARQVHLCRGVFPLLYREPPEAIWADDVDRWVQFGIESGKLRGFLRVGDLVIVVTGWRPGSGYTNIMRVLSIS
# PKR R510Q, sequence (P30613 whole entry R510Q): as the sequence (P30613 whole entry R532W) above, with R510Q, W532R counted along it
# T1 sequence (P30613 whole entry): as the sequence (P30613 whole entry R532W) above, with W532R counted along it
Compound,AC50 (PKR R510Q),AC50 (PKR R532W),AC50 (PKR WT [1]),AC50 (PKR WT [2])
"O=C(c1ccc(NS(=O)(=O)c2cccc3cccnc23)cc1)N1CCC(O)(c2ccccc2C(F)F)CC1 [Compound 113, N-[4-[4-[2-(difluoromethyl)phenyl]-4-hydroxy-piperidine-1-carbonyl]phenyl]quinoline-8-sulfonamide]",< 0.1 µM,< 0.1 µM,< 0.1 µM,< 0.1 µM
"CC(C)CC1(O)CCN(C(=O)c2ccc(NS(=O)(=O)c3cccc4c(O)ncnc34)cc2)CC1 [Compound 388, 4-hydroxy-N-(4-(4-hydroxy-4-isobutylpiperidine-1-carbonyl)phenyl)quinazoline-8-sulfonamide]",< 0.1 µM,< 0.1 µM,< 0.1 µM,< 0.1 µM
"O=C(c1ccc(NS(=O)(=O)c2cccc3cccnc23)cc1)N1CCC(O)(c2cccc(F)c2F)CC1 [Compound 100, N-[4-[4-(2,3-difluorophenyl)-4-hydroxy-piperidine-1-carbonyl]phenyl]quinoline-8-sulfonamide]",< 0.1 µM,< 0.1 µM,< 0.1 µM,< 0.1 µM
Nc1nc2c(S(=O)(=O)Nc3ccc(C(=O)N4CCC(O)(CCC(F)(F)F)CC4)cc3)cccc2s1 [Compound 430],0.101 to 1 µM,< 0.1 µM,< 0.1 µM,0.101 to 1 µM
"CC(C)CC1(O)CCN(C(=O)c2ccc(NS(=O)(=O)c3cccc4nccnc34)cc2OC(F)F)CC1 [Compound 213, N-(3-(difluoromethoxy)-4-(4-hydroxy-4-isobutylpiperidine-1-carbonyl)phenyl)quinoxaline-5-sulfonamide]",0.101 to 1 µM,< 0.1 µM,< 0.1 µM,< 0.1 µM
CC(CC1(O)CCN(C(=O)c2ccc(NS(=O)(=O)c3cccc4scnc34)cc2)CC1)C(F)(F)F (stereo not shown) [Compound 391],< 0.1 µM,< 0.1 µM,< 0.1 µM,< 0.1 µM
Cn1nccc1CC1(O)CCN(C(=O)c2ccc(NS(=O)(=O)c3cccc4scnc34)cc2)CC1 [Compound 433],0.101 to 1 µM,< 0.1 µM,0.101 to 1 µM,0.101 to 1 µM
"CNc1nc2c(S(=O)(=O)Nc3ccc(C(=O)N4CCC(O)(CC(C)C)CC4)cc3)cc(Cl)cc2s1 [Compound 385, 6-chloro-N-(4-(4-hydroxy-4-isobutylpiperidine-1-carbonyl)phenyl)-2-(methylamino)benzo[d]thiazole-4-sulfonamide]",< 0.1 µM,< 0.1 µM,< 0.1 µM,< 0.1 µM
"O=C(c1ccc(NS(=O)(=O)c2cccc3cccnc23)cc1F)N1CCC(O)(c2ccccc2Cl)CC1 [Compound 193, N-(4-(4-(2-chlorophenyl)-4-hydroxypiperidine-1-carbonyl)-3-fluorophenyl)quinoline-8-sulfonamide]",0.101 to 1 µM,< 0.1 µM,< 0.1 µM,< 0.1 µM
"O=C(c1ccc(NS(=O)(=O)c2cccc(Cl)c2Cl)cc1)N1CCC(O)(Cc2ccccc2)CC1 [Compound 237, N-(4-(4-benzyl-4-hydroxypiperidine-1-carbonyl)phenyl)-2,3-dichlorobenzenesulfonamide]",0.101 to 1 µM,0.101 to 1 µM,0.101 to 1 µM,0.101 to 1 µM
"CC(CC1(O)CCN(C(=O)c2ccc(NS(=O)(=O)c3cccc4scnc34)cc2)CC1)C(F)F (stereo not shown) [Compound 405, N-(4-(4-(3,3-difluoro-2-methylpropyl)-4-hydroxypiperidine-1-carbonyl)phenyl)benzo[d]thiazole-4-sulfonamide]",0.101 to 1 µM,0.101 to 1 µM,0.101 to 1 µM,0.101 to 1 µM
"CC(C)CC1(O)CCN(C(=O)c2ccc(NS(=O)(=O)c3cccc(O)c3N)cc2)CC1 [Compound 380, 2-amino-3-hydroxy-N-(4-(4-hydroxy-4-isobutylpiperidine-1-carbonyl)phenyl)benzenesulfonamide]",0.101 to 1 µM,0.101 to 1 µM,< 0.1 µM,< 0.1 µM
"O=C(c1ccc(NS(=O)(=O)c2cccc3cccnc23)c(F)c1)N1CCC(O)(Cc2ccccc2)CC1 [Compound 163, N-(4-(4-benzyl-4-hydroxypiperidine-1-carbonyl)-2-fluorophenyl)quinoline-8-sulfonamide]",0.101 to 1 µM,< 0.1 µM,< 0.1 µM,< 0.1 µM
"O=C(c1ccc(NS(=O)(=O)c2cccc3ccccc23)cc1)N1CCC(O)(c2ccccc2Cl)CC1 [Compound 197, N-(4-(4-(2-chlorophenyl)-4-hydroxypiperidine-1-carbonyl)phenyl)naphthalene-1-sulfonamide]",0.101 to 1 µM,< 0.1 µM,< 0.1 µM,0.101 to 1 µM
"Cc1cc(C(=O)N2CCC(O)(c3ccccc3Cl)CC2)ccc1NS(=O)(=O)c1cccc2cccnc12 [Compound 104, N-(4-(4-(2-chlorophenyl)-4-hydroxypiperidine-1-carbonyl)-2-methylphenyl)quinoline-8-sulfonamide]",< 0.1 µM,< 0.1 µM,< 0.1 µM,< 0.1 µM
"O=C(c1ccc(NS(=O)(=O)c2cccc3scnc23)cc1)N1CCC(O)(CCC=C(F)F)CC1 [Compound 393, N-(4-(4-(4,4-difluorobut-3-en-1-yl)-4-hydroxypiperidine-1-carbonyl)phenyl)benzo[d]thiazole-4-sulfonamide]",0.101 to 1 µM,< 0.1 µM,< 0.1 µM,< 0.1 µM

# Now from value to compound:
AC50 (PKR R510Q),AC50 (PKR R532W),AC50 (PKR WT [1]),AC50 (PKR WT [2]),Compound
0.101 to 1 µM,< 0.1 µM,< 0.1 µM,0.101 to 1 µM,"Cc1cccc(CC2(O)CCN(C(=O)c3ccc(NS(=O)(=O)c4cccc5cccnc45)cc3)CC2)n1 [Compound 207, N-(4-(4-hydroxy-4-((6-methylpyridin-2-yl)methyl)piperidine-1-carbonyl)phenyl)quinoline-8-sulfonamide]"
0.101 to 1 µM,< 0.1 µM,< 0.1 µM,0.101 to 1 µM,"Cc1ccc(C2(O)CCN(C(=O)c3ccc(NS(=O)(=O)c4cccc5cccnc45)cc3)CC2)c(Cl)c1 [Compound 190, N-[4-[4-(2-chloro-4-methyl-phenyl)-4-hydroxy-piperidine-1-carbonyl]phenyl]quinoline-8-sulfonamide]"
1.01 to 10 µM,0.101 to 1 µM,0.101 to 1 µM,1.01 to 10 µM,"CCOC(=O)C1(CC(C)C)CCN(C(=O)c2ccc(NS(=O)(=O)c3cccc4cccnc34)cc2)CC1 [Compound 250, Ethyl 4-isobutyl-1-(4-(quinoline-8-sulfonamido)benzoyl)piperidine-4-carboxylate]"
< 0.1 µM,< 0.1 µM,< 0.1 µM,< 0.1 µM,"CC(C)(C)CC1(O)CCN(C(=O)c2ccc(NS(=O)(=O)c3cccc4cccnc34)cc2)CC1 [Compound 117, N-(4-(4-hydroxy-4-neopentylpiperidine-1-carbonyl)phenyl)quinoline-8-sulfonamide]"
< 0.1 µM,< 0.1 µM,< 0.1 µM,< 0.1 µM,CC(C)CC1(O)CCN(C(=O)c2ccc(NS(=O)(=O)c3cccc4ncc(N)nc34)cc2)CC1 [Compound 437]
< 0.1 µM,< 0.1 µM,< 0.1 µM,< 0.1 µM,"CC(C)CC1(CO)CCN(C(=O)c2ccc(NS(=O)(=O)c3cccc4cccnc34)cc2)CC1 [Compound 172, N-(4-(4-(hydroxymethyl)-4-isobutylpiperidine-1-carbonyl)phenyl)quinoline-8-sulfonamide]"
0.101 to 1 µM,< 0.1 µM,< 0.1 µM,< 0.1 µM,"Cc1ncccc1C1(O)CCN(C(=O)c2ccc(NS(=O)(=O)c3cccc4cccnc34)cc2)CC1 [Compound 147, N-(4-(4-hydroxy-4-(2-methylpyridin-3-yl)piperidine-1-carbonyl)phenyl)quinoline-8-sulfonamide]"
0.101 to 1 µM,< 0.1 µM,< 0.1 µM,< 0.1 µM,"O=C(c1ccc(NS(=O)(=O)c2cccc3cccnc23)cc1)N1CCC(O)(c2ccncc2Cl)CC1 [Compound 161, N-(4-(4-(3-chloropyridin-4-yl)-4-hydroxypiperidine-1-carbonyl)phenyl)quinoline-8-sulfonamide]"
< 0.1 µM,< 0.1 µM,< 0.1 µM,< 0.1 µM,"CC(C)CC1(O)CCN(C(=O)c2ccc(NS(=O)(=O)c3cccc4scnc34)cc2)CC1 [Compound 173, N-(4-(4-hydroxy-4-isobutylpiperidine-1-carbonyl)phenyl)benzo[d]thiazole-4-sulfonamide]"
0.101 to 1 µM,< 0.1 µM,< 0.1 µM,0.101 to 1 µM,"COc1ccccc1C1(O)CCN(C(=O)c2ccc(NS(=O)(=O)c3cccc4cccnc34)cc2)CC1 [Compound 184, N-(4-(4-hydroxy-4-(2-methoxyphenyl)piperidine-1-carbonyl)phenyl)quinoline-8-sulfonamide]"
< 0.1 µM,< 0.1 µM,< 0.1 µM,< 0.1 µM,"O=C(c1ccc(NS(=O)(=O)c2cccc3cccnc23)cc1)N1CCC(O)(CC2CCC2)CC1 [Compound 124, N-(4-(4-(cyclobutylmethyl)-4-hydroxypiperidine-1-carbonyl)phenyl)quinoline-8-sulfonamide]"
0.101 to 1 µM,< 0.1 µM,< 0.1 µM,< 0.1 µM,"CC(C)CC1(O)CCN(C(=O)c2ccc(NS(=O)(=O)c3ccc(F)c4cccnc34)cc2)CC1 [Compound 203, 5-fluoro-N-(4-(4-hydroxy-4-isobutylpiperidine-1-carbonyl)phenyl)quinoline-8-sulfonamide]"
